In patent publication US20230002400A1, “AMORPHOUS FORM OF NITROGEN-CONTAINING TRICYCLIC COMPOUND AND USE THEREOF” (SUNSHINE LAKE PHARMA CO., LTD., priority 2019, published 2023):

Tests used:
[1] = Pharmacokinetic test in Beagle dogs, oral capsules; assay type: in vivo; conditions: dog, plasma, male Beagle dogs, 5 mg/kg orally
Experimental: The amorphous form of compound having Formula (I) named 2-((5-cyclopropyl-3-(2,6-di chl orophenyl)i soxazol-4-yl)methoxy)-10H-spiro[b enzo[6,7]oxepino[3,2-b]pyridine-11,1′-cyclopropane]-7-carboxylic acid was filled into capsules, which was for oral administration.
8-12 kg Male Beagle dogs were given 5 mg/kg test sample orally, with 3 animals in each group. Blood was taken at time points of 0.25, 0.5, 1.0, 2.0, 4.0, 6.0, 8.0, 12 and 24 h. Standard curve was plotted based on concentrations of the samples in a suitable range, the concentration of the test sample in the plasma sample was measured and quantified by AB SCIEX API4000 LC-MS/MS at MRM mode. Pharmacokinetic parameters were calculated according to drug concentration -time curve using a noncompartmental model by WinNonLin 6.3 software.

[2] = Stability test: high temperature test (60° C.); assay type: physicochemical
Experimental: (1) High temperature test: A batch of the test sample was taken into a flat weighing bottle, divided into ≤5 mm thick thin layer. The sample was placed at 60° C. for 30 days. The sample was then taken on days 5, 10, and 30, and the change of the sample's color was observed. The purity of the sample was detected by HPLC, and the structure of the sample was analyzed by X-ray powder diffraction, the change of X-ray powder diffraction in high temperature test was substantially shown in FIG. 4.

[3] = Hygroscopicity test by dynamic moisture adsorption device; assay type: physicochemical; conditions: relative humidity of 80%
Experimental: The description of the hygroscopic feature and the definition of the hygroscopic weight gain (Chinese Pharmacopoeia 2015 edition, Appendix 9103 Guidelines for Drug Hygroscopicity Tests, experimental conditions: 25° C. ±1° C., 80% ±2% relative humidity) are as described in the table below.
An appropriate amount of the test sample was taken and the hygroscopicity of the test sample was tested by dynamic moisture adsorption device. […] That is, the amorphous form of the invention is not easily deliquescent under the influence of high humidity.

[4] = Stability test: high humidity test (25° C., RH 90% ±5%); assay type: physicochemical; conditions: for Appearance / Purity (%): High humidity 25° C., RH 90% ±5%
Experimental: (2) High humidity test: A batch of the test sample was taken into the flat weighing bottle, divided into <5 mm thick thin layer. The sample was placed at 25° C. and RH for 90% ±5% for 30 days. The sample was then taken on days 5, 10, and 30, and the change of the sample's color was observed. The purity of the sample was detected by HPLC, and the structure of the sample was analyzed by X-ray powder diffraction, the change of X-ray powder diffraction in high humidity test was substantially shown in FIG. 5.

[5] = Stability test: light test (light box with UV); assay type: physicochemical; conditions: for Appearance / Purity (%): Light (with UV)
Experimental: (3) Light test: A batch of the test sample was taken into the flat weighing bottle, divided into ≤5 mm thick thin layer. The sample was placed in an opened light box (with UV) at the illuminance 4500±5001x, UV light ≥0.7w/m2 for 30 days. The sample was then taken on days 5, 13, and 30, and the change of the sample's color was observed. The purity of the sample was detected by HPLC, and the structure of the sample was analyzed by X-ray powder diffraction, the change of X-ray powder diffraction in light test was substantially shown in FIG. 6.

- AUC(0-t) [1]: 765 ng·h/mL
- Cmax [1]: 268 ng/mL
- Tmax [1]: 2 h
- Appearance ([2]; 0 Day (start of stability test)): White
- Purity (%) ([2]; 0 Day (start of stability test), HPLC): 99.66%
- Appearance ([2]; High temperature 60° C., 5 Days): White
- Purity (%) ([2]; High temperature 60° C., 5 Days, HPLC): 99.65%
- Appearance ([2]; High temperature 60° C., 10 Days): White
- Purity (%) ([2]; High temperature 60° C., 10 Days, HPLC): 99.48%
- Appearance ([2]; High temperature 60° C., 30 Days): White
- Purity (%) ([2]; High temperature 60° C., 30 Days, HPLC): 99.60%
- changes of appearance, chemical purity and crystal form ([2]; high temperature, up to 30 days, HPLC, XRPD): no obvious changes
- hygroscopic weight gain ([3]; after equilibrium): less than 2%
- hygroscopic feature ([3]; criterion for the hygroscopic weight gain): slightly hygroscopic
- Appearance ([4]; 5 Days): White
- Purity (%) ([4]; 5 Days, HPLC): 99.64%
- Appearance ([4]; 10 Days): White
- Purity (%) ([4]; 10 Days, HPLC): 99.61%
- Appearance ([4]; 30 Days): White
- Purity (%) ([4]; 30 Days, HPLC): 99.63%
- changes of appearance, chemical purity and crystal form ([4]; high humidity, up to 30 days, HPLC, XRPD): no obvious changes
- Appearance ([5]; 5 Days): White
- Purity (%) ([5]; 5 Days, HPLC): 99.62%
- Appearance ([5]; 13 days): White
- Purity (%) ([5]; 13 days, HPLC): 99.63%
- Appearance ([5]; 30 days): White
- Purity (%) ([5]; 30 days, HPLC): 99.57%
- changes of appearance, chemical purity and crystal form ([5]; light, up to 30 days, HPLC, XRPD): no obvious changes
SMILES: O=C(O)c1ccc2c(c1)Oc1ccc(OCc3c(-c4c(Cl)cccc4Cl)noc3C3CC3)nc1C1(CC1)C2 [The amorphous form, 2-((5-cyclopropyl-3-(2,6-dichlorophenyl)isoxazol-4-yl)methoxy)-10H-spiro[benzo[6,7]oxepino[3,2-b]pyridine-11,1′-cyclopropane]-7-carboxylic acid]
